Reference: article PMC12238850, “Molecular determinants for recognition of serotonylated chromatin” (Nucleic Acids Research, 2025)
Read-outs that look alike come from different tables or passages of the source.

Columns and labels:
[1] = biological target: TAF3-PHD; conditions: read-out: expected dissociation constant (KD); cited from earlier work
Method: An important link between H3K4me3 and pol II is formed by the basal transcription factor TFIID [[32], [35–37]]. TFIID is able to engage with active promoters by DNA contacts as well as by two histone-binding domains: the double bromodomains of TAF1 engaging acylated histones and the TAF3-PHD finger binding H3K4me3 [[32], [35–37]]. […] Binding of ... || All data were recorded at 298 K on a Bruker Avance III HD 900 MHz spectrometer equipped with a cryoprobe, unless noted otherwise. Sample for assignment verification contained 0.3 mM ^13C- and ^15N-labelled PHD finger of Taf3 (residues 857–924) in NMR buffer (20 mM KPi, pH 7.0, 150 mM KCl, 10 μM ZnCl2, 0.01% NaN3, 10% D2O) in a 5-mm NMR tube. Samples for peptide interaction studies contained 0.19 mM ^13C- and ^15N-labelled PHD in NMR buffer in 3-mm NMR tubes. Lyophilized peptides were dissolved in NMR buffer including 1 mM sodium 3-(trimethylsilyl)tetradeuteriopropanionate (TSP) into 20 mM stoc ... || Overall, we propose that serotonin recognition is governed by edge–face CH–π interactions with either aromatic residues or prolines. Consistent with our proposal, CHD1 contains aromatic residues at positions Y295 and Y406, either of which could orient to engage with H3Q5ser explaining the preference of CHD1 for serotonin (Supplementary Fig. S15C). […]

[2] = biological target: T1, Taf3-PHD (residues 857–924) (Mus musculus, UniProt Q5HZG4); test: NMR titration line shape analysis (TITAN), wild-type Taf3-PHD; format: binding
T1 construct: PHD finger of Taf3 (residues 857–924) in NMR buffer; GST (N, cleaved yes); made in house; host or cells: E. coli BL21(DE3), M9 minimal medium (13C/15N)
T1 sequence (Q5HZG4 857-924): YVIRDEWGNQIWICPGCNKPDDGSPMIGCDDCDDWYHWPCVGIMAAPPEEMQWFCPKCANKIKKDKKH
Method: The ^13C- and ^15N-labelled Taf3-PHD NMR samples were purified as described above, with minor differences. A single colony of freshly transformed BL21(DE3) E. coli was grown in a synthetic M9 minimal medium (6.0 g/l Na2HPO4·2H2O, 3.0 g/l KH2PO4, 0.5 g/l NaCl, 25 mg/l MgSO4, 290 μg/l CaCl2, 1 μg/l FeSO4·7H2O, 270 μg/l ZnCl2, and 5 mg/l thiamine) containing 2.0 g/l ^13C-glucose as the only carbon source and 0.5 g/l ^15NH4Cl as the sole nitrogen source. Protein expression, lysis, and loading to Glutathione Sepharose™ column were performed as described above. The GST-tag was removed through on-column thrombin digestion by loading excess thrombin (SERVA) in wash buffer followed by overnight digestion at 4°C. The cleaved PHD moiety with a […] N-terminal extension (Gly–Ser–His–Met–Ala–Met–Ala) remaining from the thrombin cleavage site was collected from the flow-through and further purified in a Mono Q™ 10/100 GL as before and subsequently loaded to a Superdex-75 HiLoad 16/600 gel filtration column in NMR buffer (20 mM KPi, pH 7.0, 150 mM KCl, 10 μM ZnCl2) (Supplementary Fig. S1).
All data were recorded at 298 K on a Bruker Avance III HD 900 MHz spectrometer equipped with a cryoprobe, unless noted otherwise. Sample for assignment verification contained 0.3 mM ^13C- and ^15N-labelled PHD finger of Taf3 (residues 857–924) in NMR buffer (20 mM KPi, pH 7.0, 150 mM KCl, 10 μM ZnCl2, 0.01% NaN3, 10% D2O) in a 5-mm NMR tube. Samples for peptide interaction studies contained 0.19 mM ^13C- and ^15N-labelled PHD in NMR buffer in 3-mm NMR tubes. Lyophilized peptides were dissolved in NMR buffer including 1 mM sodium 3-(trimethylsilyl)tetradeuteriopropanionate (TSP) into 20 mM stock solutions. Upon dilution to 1 mM, all peptide solutions were at pH 7.0 in NMR buffer. Peptide concentrations were determined by comparing the integral of the Thr methyl signal (from T3, T6, and T11, total nine protons) to that of TSP using a quantitative 1D experiment (recycle delay 60 s) recorded at a Bruker Avance III 600 MHz spectrometer. Saturated complexes with H3K4me1/H3K4me2/H3K4me3 peptides with and without H3Q5ser were made by adding peptide to a 0.7 mM final concentration (3.6 equiv.). […] Additional samples were prepared using 30%, 50%, 80%, and 160% equiv. of peptide. All spectra were recorded and processed using Bruker Topspin and analysed using NMR-FAM Sparky and Poky.
For the H3K4me2 complexes, the resonance of G879 was excluded due to overlap and that of K875 was included. Spectra were processed using NMRPipe using exponential line broadening of 10/15 Hz in the direct/indirect dimension of the free induction decay before Fourier transform. Data were fit against a 1:1 binding model that also optimizes the ligand concentration to compensate for concentration errors. Fitting assumed an HSQC experiment using 1.2 ms for the first zz-filter delays and an additional 0.6 ms evolution at the start and end of t1 that accommodated the echo/anti-echo gradient. The average koff value and standard error from a bootstrap analysis based on 100 replicas are reported. The 95% confidence limits were estimated using a grid search fixing koff allowing for an ∼3% increase in the final residuals as based on the F-statistic given the degrees of freedom. For each koff value, the KD for the H3K4me3 peptide was restrained to fall within 100 and 400 nM to enforce compatibility to previous reported affinity to avoid unrealistically high fitted KD values at higher koff values. Of note, the quality of the fit at the confidence limit edges is visibly worse than the best fit, particularly for the high koff side. For the H3K4me3Q5ser peptide, no restraint on KD was necessary. For the H3K4me2 peptides, the KD was restrained to 5 μM maximum. Without these upper bounds for KD, slightly wider confidence limits for koff are found.

[3] = biological target: Taf3-PHD P881E–W894F used for NMR titrations (Mus musculus) (UniProt Q5HZG4); test: NMR titration; 0.19 mM 13C,15N-labelled Taf3-PHD, peptide added (30% to 3.6 equiv.); 298 K; 20 mM KPi pH 7.0, 150 mM KCl, 10 μM ZnCl2; koff from TITAN line-shape fits (0%, 50%, 150% peptide), 1:1 model
[4] = biological target: 13C- and 15N-labelled Taf3-PHD finger (residues 857-924), GST removed by thrombin (Mus musculus) (UniProt Q5HZG4); test: as above
[5] = tested on: BPTF; test: Histone peptide pull-down qMS, HeLa nuclear extract; format: binding, HeLa cells; conditions: biotinylated H3 (1–13) peptides, FDR 0.1
Method: (§1) Nuclear extracts of HeLa cells were prepared using a modified version of the Dignam procedure. Cytosolic and nuclear separation was validated by immunoblot using the following antibodies: for TBP the 20C7 in house mouse monoclonal and for Tubulin the DM1A monoclonal from Calbiochem (CP06) (Supplementary Fig. S5A). Biotinylated H3 (1–13) peptides immobilized on Dynabeads™ M-280 Streptavidin (Invitrogen) were incubated on a rotating wheel with 1 mg of HeLa nuclear extract overnight at 4°C in binding buffer [20 mM HEPES–KOH, pH 7.9, 300 mM NaCl, 20% glycerol, 2 mM MgCl2, 0.2 mM ethylenediaminetetraacetic acid, 0.1% NP-40, 0.5 mM DTT, and 1× cOmplete™ Protease Inhibitor Cocktail (Roche)]. The beads were then washed two times with binding buffer containing 0.5% NP-40, two times with phosphate buffered saline (PBS) containing 0.5% NP-40, and two times with plain PBS. On-bead digestion of bound proteins was performed overnight at 22°C with 0.1 μg/ml of trypsin in elution buffer (100 mM Tris–HCl, pH 7.5, 2 M urea, 10 mM DTT). […] A third of the final elution was analysed as described in [44, 45] with minor changes. For nanoflow-HPLC–MS/MS samples were analysed on an Orbitrap Fusion Lumos mass spectrometer coupled to an Easy nano-LC 1200 HPLC (Thermo Fisher Scientific). […]

[6] = tested on: TFIID; test: as above; format: binding, HeLa cells; conditions: biotinylated H3 (1–13) peptides, overnight at 4°C, 300 mM NaCl, pH 7.9, qMS, FDR 0.1
Method: as §1

[7] = biological target: T2, Taf3-PHD (Mus musculus Taf3 residues 857-924), 13C- and 15N-labelled, GST removed (Mus musculus, UniProt Q5HZG4 857-924, 13C- and 15N-labelled); test: solution NMR structure; 0.88 mM 13C,15N Taf3-PHD with 0.88 mM H3K4me3Q5ser peptide; 20 mM KPi pH 7.0, 4 mM KCl, 10 uM ZnCl2; NOESY at 293 K; NOE distance restraints imposed with HADDOCK on the structure PDB 2K17; conditions: both partners purified
T2 construct: Taf3 PHD finger, Mus musculus, residues 857-924; numbering of mouse Taf3 isoform 1, UniProt Q5HZG4; also called Taf3-PHD finger; PHD domain; source: E. coli BL21(DE3) in M9 minimal medium, purified (Glutathione Sepharose, on-column thrombin, Mono Q, Superdex-75); not shown: GST, N-terminal, cleaved
T2 sequence: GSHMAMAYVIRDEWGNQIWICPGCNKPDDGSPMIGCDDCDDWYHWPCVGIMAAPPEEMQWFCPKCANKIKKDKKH

## H-ARTK(Me)QTARKSTG-NH2 [H3K4me1, H3 tail peptide monomethylated at lysine 4]
[1]
  Kd: > 200000 nM

## C[C@H](N)C(=O)N[C@@H](CCCNC(=N)N)C(=O)N[C@H](C(=O)N[C@@H](CCCCN(C)C)C(=O)N[C@@H](CCC(N)=O)C(=O)N[C@H](C(=O)N[C@@H](C)C(=O)N[C@@H](CCCNC(=N)N)C(=O)N[C@@H](CCCCN)C(=O)N[C@@H](CO)C(=O)N[C@H](C(=O)NCC(N)=O)[C@@H](C)O)[C@@H](C)O)[C@@H](C)O [H3K4me2]
[2]; NMR line shape fit (TITAN), 298 K, 20 mM KPi, pH 7.0, 150 mM KCl, 1:1 model, average ± standard error from bootstrap, 100 replicas, read-out: koff
  koff: 207 ± 10 s⁻¹
[2]; NMR line shape fit (TITAN), 298 K, pH 7.0, grid search, read-out: koff 95% confidence limits
  koff: 160 to 250 s⁻¹
[1]
  Kd: 1700 nM

## H3K4me3Q5ser histone H3 tail peptide (non-biotinylated)
[3]
  koff: 24.2 s⁻¹
[4]
  koff: 16.8 s⁻¹

## H-ARTKQ(ser)TARKSTG-NH2 [H3Q5ser, H3 tail peptide, K4 unmethylated, serotonylated glutamine 5]
[5]
  BPTF preference for H3Q5ser peptides: enhanced binding to H3Q5ser compared to the unmodified H3 peptide

## C[C@H](N)C(=O)N[C@@H](CCCNC(=N)N)C(=O)N[C@H](C(=O)N[C@@H](CCCCN(C)C)C(=O)N[C@@H](CCC(=O)NCCc1c[nH]c2ccc(O)cc12)C(=O)N[C@H](C(=O)N[C@@H](C)C(=O)N[C@@H](CCCNC(=N)N)C(=O)N[C@@H](CCCCN)C(=O)N[C@@H](CO)C(=O)N[C@H](C(=O)NCC(N)=O)[C@@H](C)O)[C@@H](C)O)[C@@H](C)O [H3K4me2Q5ser]
[2]; pH 7
  koff: 71 ± 2 s⁻¹
[2]; pH 7, read-out: koff 95% confidence limits
  koff: 56 to 90 s⁻¹
[6]
  TFIID preference for H3Q5ser peptides: TFIID enrichment was most pronounced

## H3K4me2 histone H3 tail peptide (non-biotinylated)
[4]
  koff: 207 s⁻¹

## H3K4me2Q5ser histone H3 tail peptide (non-biotinylated)
[4]
  koff: 71 s⁻¹

## H3K4me3 histone H3 tail peptide (non-biotinylated)
[3]
  koff: 29.6 s⁻¹
[4]
  koff: 48.8 s⁻¹

B1: H3K4me3Q5ser peptide, non-biotinylated: H-ARTK(Me3)Q(ser)TARKSTG-NH2 (peptide)
peptide: H-ARTK(Me3)Q(serotonyl)TARKSTG-NH2
notes: histone H3 N-terminal tail, residues 1-12 of H3K4me3Q5ser; also called H3K4me3Q5ser ligand; H3 peptide; source: synthetic peptide
[7]
  binding result: binds
